# From patent US20210246122A1, “Triazine Compounds and Uses Thereof” (Aduro Biotech, Inc., priority 2018, published 2021)
# pIC50: −log10 of the molar value.
# Molecular target: T1, Human cGAS amino acids 155-522 (Homo sapiens, UniProt Q8N884)
# T1 construct: hexahistidine tag (N, cleaved yes); made in house; host or cells: E. coli BL21 DE3 Rosetta 2
# Assay: cGAS activity assay (DNA-activated cGAS, remaining ATP measured by Kinase-Glo Max luciferase assay)
# Assay type: biochemical
# Details: 300 nM purified cGAS, 1 μM dsDNA, 250 μM ATP, 100 μM GTP, 37° C. for 1.25 hours
# Procedure: IC50 values were determined as follows:
# Human cGAS sequence encoding amino acids 155-522 was cloned into a pET (EMD Millipore) based expression plasmid. The resulting construct contained a tandem N-terminal hexahistidine tag, maltose binding protein fusion followed by a tobacco etch virus protease cleavable linker preceding cGAS amino acids 155-522.
# Construct sequence: Amino acids 155-522, Human cGAS
# Protein was expressed and purified from E. coli BL21 DE3 Rosetta 2 (EMD Millipore) cells using standard techniques. Cells were grown in 2× yeast extract tryptone medium and expression was initiated via the addition of isopropyl β-D-1-thiogalactopyranoside. Expression proceeded overnight at 18° C. Cells were harvested by centrifugation and subsequently lysed via sonication. Insoluble fraction was removed by centrifugation. Maltose binding protein (MBP) fusion proteins were purified on a dextrin sepharose column (GE Healthcare) and the MBP tag was removed using tobacco etch virus protease overnight during dialysis. Protein was further purified on a heparin column (GE Healthcare) and eluted using a NaCl gradient. Column fraction were pooled and further purified on a Superdex 75 gel filtration column (GE Healthcare). Protein was quantified using 280 nm absorbance. Protein was then flash frozen in liquid nitrogen and stored at −80° C. until use.
# Potential antagonists were diluted in 100% dimethyl sulfoxide and added to the reaction. Final dimethyl sulfoxide concentration was 5%. The compounds were tested from 1 μM with either 3- or 4-fold serial dilutions down to 0.000051 or 0.000004 μM respectively.
# Two complementary DNA oligos (IDT DNA) were annealed by slow cooling from 95° C. The resulting double stranded DNA was used to activate cGAS.
# Reactions were performed at 37° C. for 1.25 hours. Reaction buffer: 20 mM Tris HCl pH 9, 100 mM NaCl, 5 mM MgCl2, 0.1 mg/ml bovine gamma globulin, 250 μM adenosine triphosphate, 100 μM guanosine triphosphate, 0.5 mM Tris(2-carboxyethyl)phosphine hydrochloride, 1 μM double stranded DNA and 300 nM purified cGAS protein.
# Reactions were stopped and ATP levels in the reaction were measured using a luciferase based assay. Promega Kinase-Glo Max Assay. Luminescence was measured on a plate reader (Molecular Devices). Values were normalized to control wells lacking compound.
# T1 sequence (Q8N884 157-522): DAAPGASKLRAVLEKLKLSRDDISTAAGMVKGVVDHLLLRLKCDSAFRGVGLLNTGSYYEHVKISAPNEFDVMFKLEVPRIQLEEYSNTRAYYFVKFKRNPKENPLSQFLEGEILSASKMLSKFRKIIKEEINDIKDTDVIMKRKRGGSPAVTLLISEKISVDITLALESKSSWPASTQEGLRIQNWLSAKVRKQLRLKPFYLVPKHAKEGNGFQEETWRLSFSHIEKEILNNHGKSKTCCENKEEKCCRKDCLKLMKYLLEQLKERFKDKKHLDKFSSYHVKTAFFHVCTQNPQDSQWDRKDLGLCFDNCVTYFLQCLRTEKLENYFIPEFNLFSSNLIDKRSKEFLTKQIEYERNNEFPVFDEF
row,SMILES,pIC50
1,"COC(=O)[C@H](Cc1ccc(C#N)cc1)Nc1nc(NCc2nc3cc(F)ccc3[nH]2)nc(Nc2cccc(CN3CCN(C(=O)OC(C)(C)C)CC3)c2)n1 [TA1003, tert-butyl (S)-4-(3-((4-((3-(4-cyanophenyl)-1-methoxy-1-oxopropan-2-yl)amino)-6-(((5-fluoro-1H-benzo[d]imidazol-2-yl)methyl)amino)-1,3,5-triazin-2-yl)amino)benzyl)piperazine-1-carboxylate]",< 3.60
2,"CN(C)C(=O)[C@H](Cc1ccc(C#N)cc1)Nc1nc(Cl)nc(Nc2cccc(CN3CCN(C(=O)OC(C)(C)C)CC3)c2)n1 [TA1008, tert-butyl (S)-4-(3-((4-chloro-6-((3-(4-cyanophenyl)-1-(dimethylamino)-1-oxopropan-2-yl)amino)-1,3,5-triazin-2-yl)amino)benzyl)piperazine-1-carboxylate]",< 3.60
3,"CN(C)C(=O)[C@H](Cc1ccc(C#N)cc1)Nc1nc(Cl)nc(Nc2cccc(CN3CCNCC3)c2)n1 [TA1009, (S)-2-((4-chloro-6-((3-(piperazin-1-ylmethyl)phenyl)amino)-1,3,5-triazin-2-yl)amino)-3-(4-cyanophenyl)-N,N-dimethylpropanamide]",< 3.60
4,"CN(C)C(=O)[C@H](Cc1ccc(C#N)cc1)Nc1ncnc(Nc2cccc(CN3CCN(C(=O)OC(C)(C)C)CC3)c2)n1 [TA1010, tert-butyl (S)-4-(3-((4-((3-(4-cyanophenyl)-1-(dimethylamino)-1-oxopropan-2-yl)amino)-1,3,5-triazin-2-yl)amino)benzyl)piperazine-1-carboxylate]",< 3.60
5,"CN(C)C(=O)[C@H](Cc1ccc(C#N)cc1)Nc1ncnc(Nc2cccc(CN3CCNCC3)c2)n1 [TA1011, (S)-3-(4-cyanophenyl)-N,N-dimethyl-2-((4-((3-(piperazin-1-ylmethyl)phenyl)amino)-1,3,5-triazin-2-yl)amino)propanamide]",< 3.60
6,"CN(C)C(=O)[C@H](Cc1ccc(C#N)cc1)Nc1nc(NCc2nc3cc(F)ccc3[nH]2)nc(Nc2cccc(CN3CCNCC3)c2)n1 [TA1013, (S)-3-(4-cyanophenyl)-2-((4-(((5-fluoro-1H-benzo[d]imidazol-2-yl)methyl)amino)-6-((3-(piperazin-1-ylmethyl)phenyl)amino)-1,3,5-triazin-2-yl)amino)-N,N-dimethylpropanamide]",< 3.60
7,"Cc1cc2nc(CN(C)c3nc(Nc4cccc(CN5CCNCC5)c4)nc(N[C@@H](Cc4ccc(C#N)cc4)C(=O)N(C)C)n3)[nH]c2cc1C [TA1014, (S)-3-(4-cyanophenyl)-2-((4-(((5,6-dimethyl-1H-benzo[d]imidazol-2-yl)methyl)(methyl)amino)-6-((3-(piperazin-1-ylmethyl)phenyl)amino)-1,3,5-triazin-2-yl)amino)-N,N-dimethylpropanamide]",< 3.60

# The remaining lines, values ahead:
row,pIC50,SMILES
1,< 3.60,"COC(=O)[C@H](Cc1ccc(C#N)cc1)Nc1nc(Cl)nc(Nc2cccc(CN3CCN(C(=O)OC(C)(C)C)CC3)c2)n1 [TA1002, tert-butyl (S)-4-(3-((4-chloro-6-((3-(4-cyanophenyl)-1-methoxy-1-oxopropan-2-yl)amino)-1,3,5-triazin-2-yl)amino)benzyl)piperazine-1-carboxylate]"
2,< 3.60,"Cc1cc2nc(CN(C)c3nc(Nc4cccc(CN5CCN(C(=O)c6cc7[nH]cnc7cc6C)CC5)c4)nc(N[C@@H](Cc4ccc(C#N)cc4)C(=O)N(C)C)n3)[nH]c2cc1C [TA1015, (S)-3-(4-cyanophenyl)-2-((4-(((5,6-dimethyl-1H-benzo[d]imidazol-2-yl)methyl)(methyl)amino)-6-((3-((4-(5-methyl-1H-benzo[d]imidazole-6-carbonyl)piperazin-1-yl)methyl)phenyl)amino)-1,3,5-triazin-2-yl)amino)-N,N-dimethylpropanamide]"
3,3.60 to 4.70,"CN(C)C(=O)[C@H](Cc1ccc(C#N)cc1)Nc1nc(NCc2nc3cc(F)ccc3[nH]2)nc(Nc2cccc(CN3CCN(C=O)CC3)c2)n1 [TA1016, (S)-3-(4-cyanophenyl)-2-((4-(((5-fluoro-1H-benzo[d]imidazol-2-yl)methyl)amino)-6-((3-((4-formylpiperazin-1-yl)methyl)phenyl)amino)-1,3,5-triazin-2-yl)amino)-N,N-dimethylpropanamide]"
